We go through three compounds from US20190177771A1, “PNA PROBE FOR DISCRIMINATION OF QUINOLONE ANTIBIOTIC RESISTANT BACTERIA AND METHOD FOR DISCRIMINATION OF ANTIBIOTIC RESISTANT BACTERIA USING THE SAME” (priority 2017, published 2019).

The test system of experiment [1] is E. tarda. Kind of experiment: MIC measurement of E. tarda strains for quinolone antibiotics. It is filed as cell-based. Particulars: Edwardsiella tarda. As to the method:
(§1) Using S. parauberis, E. tarda, and V. harveyi samples stored in the National Institute of Fisheries Science, MIC values were measured.

In experiment [2] the test system is S. parauberis. Kind of experiment: MIC measurement of S. parauberis strains for quinolone antibiotic. The format is cell-based. Particulars: Streptococcus parauberis. As to the method: as §1
The test system of experiment [3] is V. harveyi. Kind of experiment: MIC measurement of V. harveyi strains for quinolone antibiotics. It is filed as cell-based, Vibrio harveyi. The note with it: for MIC: Vibrio harveyi. As to the method: as §1
The mark [4] stands for this setting: E. tarda strain FP2074, gyrA Arg83.
Where [5] appears, read: E. tarda strain FP2130, gyrA Arg83.
[6] abbreviates: E. tarda strain FP2240, gyrA Ser83.
The mark [7] stands for this setting: E. tarda strain FP2243, gyrA Arg83.
Setting [8] is: E. tarda strain FP3071, gyrA Arg83.
The mark [9] stands for this setting: E. tarda strain FP3139, gyrA Ile83.
Setting [10] is: E. tarda strain FPa4445, gyrA Arg83.
Setting [11] is: V. harveyi strain FP4541, gyrA Ile83.
The mark [12] stands for this setting: V. harveyi strain FP3023, gyrA Ser83.
The mark [13] stands for this setting: V. harveyi strain FP3031, gyrA Ser83.
[14] abbreviates: V. harveyi strain FP3457, gyrA Ser83.
The mark [15] stands for this setting: V. harveyi strain FP7021, gyrA Ser83.
[16] abbreviates: V. harveyi strain FP8045, gyrA Ser83.

In brackets after ≈: the same amount, converted by molar mass.

For the compound `O=C(O)c1cn(C2CC2)c2cc(N3CCNCC3)c(F)cc2c1=O` [Cipfloxacin, ciprofloxacin], the MIC in experiment [1] (setting [4]) was 0.13 µg/mL (≈ 0.392 µM); in experiment [1] (setting [5]), 1 µg/mL (≈ 3.02 µM); in experiment [1] (setting [6]), less than 0.06 µg/mL; in experiment [1] (setting [7]), 0.5 µg/mL (≈ 1.51 µM); in experiment [1] (setting [8]), 0.25 µg/mL (≈ 0.754 µM); in experiment [1] (setting [9]), 4 µg/mL (≈ 12.1 µM). Besides, the MIC in experiment [1] (setting [10]) worked out at 2 µg/mL (≈ 6.04 µM); in experiment [2] (S. parauberis strain FP3059, gyrA Ser81), 0.13 µg/mL (≈ 0.392 µM); in experiment [2] (S. parauberis strain FP3227, gyrA Ser81) it was 1 µg/mL (≈ 3.02 µM); in experiment [2] (S. parauberis strain FP4029, gyrA Ser81) it was 0.5 µg/mL (≈ 1.51 µM); in experiment [2] (S. parauberis strain FP4031, gyrA Ser81), 0.25 µg/mL (≈ 0.754 µM); in experiment [2] (S. parauberis strain FP5227, gyrA Ser81), 0.06 µg/mL (≈ 0.181 µM). In addition, the MIC in experiment [2] (S. parauberis strain FPa4533, gyrA Leu81) worked out at 2 µg/mL (≈ 6.04 µM).
Turning to `CC1CCc2cc(F)cc3c(=O)c(C(=O)O)cn1c23` (centres unmarked) [Flumequine], the minimal inhibitory concentration (MIC) in experiment [1] (setting [4]) was 8 µg/mL (≈ 30.6 µM); in experiment [1] (setting [5]), 64 µg/mL (≈ 245 µM); in experiment [1] (setting [6]) it was 1 µg/mL (≈ 3.83 µM); in experiment [1] (setting [7]), 32 µg/mL (≈ 122 µM); in experiment [1] (setting [8]), 16 µg/mL (≈ 61.2 µM); in experiment [1] (setting [9]), not below 512 µg/mL. In addition, the minimum inhibitory concentration (MIC) in experiment [1] (setting [10]) worked out at 32 µg/mL (≈ 122 µM); in experiment [3] (setting [12]), 1 µg/mL (≈ 3.83 µM); in experiment [3] (setting [13]) it was 2 µg/mL (≈ 7.66 µM); in experiment [3] (setting [14]), 2 µg/mL (≈ 7.66 µM); in experiment [3] (setting [11]), 16 µg/mL (≈ 61.2 µM); in experiment [3] (setting [15]), 1 µg/mL (≈ 3.83 µM). In addition, the MIC in experiment [3] (setting [16]) was 2 µg/mL (≈ 7.66 µM). For the same compound, in experiment [3] (setting [11]), the “susceptibility of the strain to the antibiotic, in words” value is on record as “resistance”.
As for `CCn1cc(C(=O)O)c(=O)c2cc3c(cc21)OCO3` [Oxolinic acid], the MIC in experiment [1] (setting [4]) was 4 µg/mL (≈ 15.3 µM); in experiment [1] (setting [5]) it was 64 µg/mL (≈ 245 µM); in experiment [1] (setting [6]) it was less than 0.25 µg/mL; in experiment [1] (setting [7]) it was 16 µg/mL (≈ 61.2 µM); in experiment [1] (setting [8]), 8 µg/mL (≈ 30.6 µM); in experiment [1] (setting [9]), 256 µg/mL (≈ 980 µM). Moreover, the MIC in experiment [1] (setting [10]) came to 8 µg/mL (≈ 30.6 µM); in experiment [3] (setting [12]), 1 µg/mL (≈ 3.83 µM); in experiment [3] (setting [13]), 1 µg/mL (≈ 3.83 µM); in experiment [3] (setting [14]), 2 µg/mL (≈ 7.66 µM); in experiment [3] (setting [11]), 8 µg/mL (≈ 30.6 µM); in experiment [3] (setting [15]) it was 1 µg/mL (≈ 3.83 µM). In experiment [3] (setting [16]), this compound showed an MIC of 1 µg/mL (≈ 3.83 µM). Moreover, in experiment [3] (setting [11]), the “susceptibility of the strain to the antibiotic, in words” value is listed as “resistance”.

By MIC is commonly meant the smallest concentration in the dilution series that meets the test's criterion for growth inhibition. Low readings indicate a more susceptible organism, high ones a less susceptible organism.
